Test results as given in patent publication US4578395A, “Certain aralkylaminoalkyl esters of 1,4 dihydropyridines as antihypertensive” (Teijin Limited, priority 1983, dated 1986).
Counter-ions that a name gives are not always drawn. Each block holds one compound with its values, some of them ahead of it.

Assays:
rats periphery = experiment: Vasodilative activity in rats periphery (constant volume blood perfusion); assay type: in vivo, Male SD strain rats
Experimental: Male SD strain rats, weighing 350 g to 450 g, were used. They were anesthetized with sodium pentobarbital 60 mg/kg i.p. […] The solution of the test compound was infused into the perfusion blood on the peripheral side with a perfusion pump, and changes in perfusion pressure were measured. The activity of the test compound was determined as the ratio of the relative activity of the test compound against papaverine obtained from the dose-response curves.

[1] = test system: SHR (Spontaneously Hypertensive Rats); experiment: Antihypertensive activity in SHR; assay type: in vivo, Male SHR (Spontaneously Hypertensive Rats); conditions: no anesthesia
Experimental: Male SHR (14 to 16 weeks old) fasted for more than 16 hours were used. […] When one hour or more passed after the rats woke up out of the ether, they were administered the test compound orally. The blood pressure was measured with the pressure transducer via the catheter inserted into the femoral artery.
The test compound was dissolved in a small quantity of ethanol and diluted with water to be adjusted for administration.
Changes in the mean blood pressure were obtained from the equation mentioned below. The Basic and Clinical Study, vol. 14, p. 4495 (1980) is a useful literature to be referred to for making this kind of experiment. [formula]

anesthetized rat = experiment: Hypotensive activity by intravenous administration in anesthetized rat (Example 27); assay type: in vivo, Male Wistar rats; conditions: for ED20: Rattus norvegicus, iv, anesthetized Wistar rats about 300 g, read-out: ED20 (dose decreasing mean blood pressure by 20%); for Duration T1/2: i.v.
Experimental: (§1) Male Wistar rats weighing about 250 g were used. They were anesthetized with urethane (500 mg/kg) and α-chloralose (100 mg/kg) intraperitoneal injection.
(§2) The test compound was dissolved in a small quantity of ethanol and the solution, which was then diluted with physiological saline to have a final concentration of ethanol kept at 5% or lower, was intravenously injected through a catheter inserted into the femoral vein.
(§3) The blood pressure was recorded with the pressure transducer via the catheter inserted into the common carotid artery of the rats.
(§4) Hypotensive activity of the test compound was indicated by the dose (ED20 μ/kg) required for decreasing the mean blood pressure by 20% as compared with the mean blood pressure before the administration.
(§5) To determine the duration of the hypotensive action of the test compound, half-life of hypotensive action T^1 /2) was measured.
Male Wistar rats weighing about 300 g were used. The measurement of hypotensive activity was conducted according to the same method as Example 23.

anesthetized rats = experiment: Hypotensive activity by intravenous administration in anesthetized rats (Example 23); assay type: in vivo, Male Wistar rats; conditions: for ED20: Rattus norvegicus, iv, anesthetized Wistar rats about 250 g, read-out: ED20 (dose decreasing mean blood pressure by 20%); for Duration T1/2 (half-life of hypotensive action): i.v., dose 10
Experimental: as §1, §2, §3, §4, §5

mean blood pressure = experiment: Action on mean blood pressure in anesthetized dog; assay type: in vivo, male beagle dog; conditions: 10 μg/kg i.v.
Experimental: (§6) A male beagle dog weighing about 10 kg was anesthetized with sodium pentobarbital (35 mg/kg i.v.). The test compound was dissolved in a small quantity of ethanol, diluted with an isotonic sodium chloride solution, and was injected into the right femoral vein.
The mean blood pressure (MBP) was measured with the pressure transwer via the cannula inserted into the right femoral artery of the male beagle dog. The changes in the blood pressure after the administration of the test compound are shown in percentages in Table 5.

[2] = test system: peripheral blood vessels (femoral artery); experiment: Action on peripheral blood vessels (femoral blood flow) in anesthetized dog; assay type: in vivo, male beagle dog; conditions: 3 μg/kg i.v.
Experimental: as §6
The carotic blood flow (CBF) and the femoral blood flow (FBF) were measured with the electromagnetic blood flowmeter (MFV-1200 made by Japan Photoelectric Co., Ltd.) via probe for measuring the blood flow volume set in the right common carotid artery and the left femoral artery of the male beagle dog respectively.

[3] = Light stability in methanol solution; assay type: physicochemical
Experimental: 1 mg of compound (156) hydrochloride was dissolved in 100 ml of methanol. The solution was placed in a transparent glass test tube, and after the test tube was tightly stoppered, it was allowed to stand by the window of the laboratory. Part of the solution was taken at regular intervals and subjected to high performance liquid chromatograph to determined the remaining quantity of compound (156) hydrochloride contained in the solution. The same experiment was conducted with nicardipine hydrochloride as the control.

platelet aggregation = experiment: In vitro inhibitory activity of platelet aggregation; assay type: cell-based, male Hartley guinea pigs; conditions: Cavia porcellus, Platelet; Conc. 100 μM, AA 75 μM
Experimental: The in vitro platelet aggregation inhibiting activities of the compounds of the invention were examined by using guinea pigs. Blood was withdrawn by cardiac puncture from male Hartley guinea pigs weighing […]. A mixture of a 3.8% trisodium citrate solution and the blood in a ratio of 1:9 was centrifuged at a speed of 800 rpm for 10 minutes. The upper layer was separated as platelet-rich plasma (PRP). The lower layer was further centrifuged at a separated as platelet-poor plasma (PPP). The number of platelets was adjusted to 5×10^5 /μl to 6×10^5 /μl by filuting the PRP with PPP. 25 microliters of the test compounds prepared as shown below was added in an amount of 25 microliters of PRP after the adjustment, and the mixture was pre-incubated at 37° C. for 2 minutes, and then 75 μM (final) of AA was added. By using an aggregometer (37° C., 1,100 rpm), changes in transmission were recorded.
The test compound was dissolved in ethanol to a concentration of 10 mg/ml. When its activity was measured, it was used after being diluted with phosphate buffer (pH 7.4). Furthermore, after dilution with the buffer, the test compound was left to stand at 0° C. for 4 hours, and the activity of the test compound was similarly measured.
The rate of inhibition of platelet aggregation was determined from the following equation. [formula]

conscious rats = experiment: Antihypertensive activity by oral administration in conscious rats; assay type: in vivo, Male Wistar rats; conditions: 10 mg/kg oral
Experimental: When one hour or more passed after the rats were aroused, they were administered the test compound orally.
The blood pressure in the femoral artery was recorder and changes in the mean blood pressure were obtained from the following equation. [formula]

Structure (SMILES): COC(=O)C1=C(C)NC(C)=C(C(=O)OCCN(C)Cc2ccccc2)C1c1cccc([N+](=O)[O-])c1F (stereo not drawn) [(104) hydrochloride, 2-(N-Benzyl-N-methylamino)ethyl methyl 2,6-dimethyl-4-(2-fluoro-3-nitrophenyl)-1,4-dihydropyridine-3,5-dicarboxylate]
relative vasodilative activity against papaverine (rats periphery; dosage 0.1 μg/kg): 30 times
relative vasodilative activity against papaverine (rats periphery; dosage 1 μg/kg): 50 times

Structure (SMILES): COC(=O)C1=C(C)NC(C)=C(C(=O)OCCN(C)Cc2ccccc2)C1c1cccc(Cl)c1F (stereo not drawn) [(106) hydrochloride, 2-(N-Benzyl-N-methylamino)ethyl methyl 2,6-dimethyl-4-(3-chloro-2-fluorophenyl)-1,4-dihydropyridine-3,5-dicarboxylate]
Changes in MBP ([1]; 10 mg/kg oral, 30 min.): -56 ± 6 mmHg
Changes in MBP ([1]; 10 mg/kg oral, 60 min.): -53 ± 11 mmHg
Changes in MBP ([1]; 10 mg/kg oral, 90 min.): -46 ± 10 mmHg
Changes in MBP ([1]; 10 mg/kg oral, 2 hr.): -47 ± 11 mmHg
Changes in MBP ([1]; 10 mg/kg oral, 3 hr.): -39 ± 10 mmHg
Changes in MBP ([1]; 10 mg/kg oral, 5 hr.): -37 mmHg
Changes in MBP ([1]; 10 mg/kg oral, 7 hr.): -31 ± 7 mmHg

Structure (SMILES): COC(=O)C1=C(C)NC(C)=C(C(=O)OCC(C)(C)CN(C)Cc2ccccc2)C1c1cccc([N+](=O)[O-])c1F (stereo not drawn) [(130) hydrochloride, 3-(N-Benzyl-N-methylamino)-2,2-dimethylpropyl methyl 2,6-dimethyl-4-(2-fluoro-3-nitrophenyl)-1,4-dihydropyridine-3,5-dicarboxylate]
ED20 (anesthetized rat): 0.0147 mg/kg
Duration T1/2 (anesthetized rat; dose 10): 15 min
ED20 (anesthetized rats): 0.016 mg/kg
Duration T1/2 (half-life of hypotensive action) (anesthetized rats): > 30 min
Changes in MBP ([1]; 3 mg/kg oral, 30 min.): -67 ± 13 mmHg
Changes in MBP ([1]; 3 mg/kg oral, 60 min.): -62 ± 13 mmHg
Changes in MBP ([1]; 3 mg/kg oral, 90 min.): -60 ± 14 mmHg
Changes in MBP ([1]; 3 mg/kg oral, 2 hr.): -54 ± 11 mmHg
Changes in MBP ([1]; 3 mg/kg oral, 3 hr.): -48 ± 13 mmHg
Changes in MBP ([1]; 3 mg/kg oral, 5 hr.): -40 mmHg
Changes in MBP ([1]; 3 mg/kg oral, 7 hr.): -29 ± 8 mmHg
Changes in MBP (mean blood pressure; 0.5 min.): -7 ± 1%
Changes in MBP (mean blood pressure; 1 min.): -11 ± 1%
Changes in MBP (mean blood pressure; 2 min.): -14 ± 1%
Changes in MBP (mean blood pressure; 5 min.): -16 ± 2%
Changes in MBP (mean blood pressure; 10 min.): -19 ± 3%
Changes in MBP (mean blood pressure; 15 min.): -20 ± 3%

remaining at 2 h ([3]; light, 2 hr., read-out: Remaining percentage): 100%
remaining at 4 h ([3]; light, 4 hr., read-out: Remaining percentage): 99%
remaining at 6 h ([3]; light, 6 hr., read-out: Remaining percentage): 100%
Structure (SMILES): COC(=O)C1=C(C)NC(C)=C(C(=O)OCC(C)(C)CN(C)Cc2ccccc2)C1c1cccc(Cl)c1F (stereo not drawn) [(156) hydrochloride, 3-(N-Benzyl-N-methylamino)-2,2-dimethylpropyl methyl 2,6-dimethyl-4-(3-chloro-2-fluorophenyl)-1,4-dihydropyridine-3,5-dicarboxylate]
Changes in FBF ([2]; 0.5 min.): 0 ± 0%
Changes in FBF ([2]; 1 min.): -1 ± 3%
Changes in FBF ([2]; 2 min.): +5 ± 5%
Changes in FBF ([2]; 5 min.): +19 ± 5%
Changes in FBF ([2]; 10 min.): +20 ± 10%
ED20 (anesthetized rat): 0.0245 mg/kg
Duration T1/2 (anesthetized rat; dose 30): 8.5 min
ED20 (anesthetized rats): 0.0149 mg/kg
Duration T1/2 (half-life of hypotensive action) (anesthetized rats): 20 min
Changes in MBP ([1]; 3 mg/kg oral, 30 min.): -41 ± 8 mmHg
Changes in MBP ([1]; 3 mg/kg oral, 60 min.): -39 ± 7 mmHg
Changes in MBP ([1]; 3 mg/kg oral, 90 min.): -35 ± 5 mmHg
Changes in MBP ([1]; 3 mg/kg oral, 2 hr.): -28 ± 6 mmHg
Changes in MBP ([1]; 3 mg/kg oral, 3 hr.): -28 ± 6 mmHg
Changes in MBP ([1]; 3 mg/kg oral, 5 hr.): -18 mmHg
Changes in MBP ([1]; 3 mg/kg oral, 7 hr.): -20 ± 4 mmHg
light stability compared with nicardipine hydrochloride [3]: better light stability than nicardipine hydrochloride
inhibition at 100 µM (platelet aggregation): -1.9 ± 2.5%

Structure (SMILES): COC(=O)C1=C(C)NC(C)=C(C(=O)OCC(C)(C)CN(C)Cc2c(Cl)cccc2Cl)C1c1cccc(Cl)c1F (stereo not drawn) [(202) hydrochloride, 3-(N-2,6-Dichlorobenzyl-N-methylamino)-2,2-dimethylpropyl methyl 2,6-dimethyl-4-(3-chloro-2-fluorophenyl)-1,4-dihydropyridine-3,5-dicarboxylate]
Changes in mean blood pressure (conscious rats; after 30 min): -39 mmHg
Changes in mean blood pressure (conscious rats; after 60 min): -40 mmHg
Changes in mean blood pressure (conscious rats; after 90 min): -38 mmHg
Changes in mean blood pressure (conscious rats; after 2 hr): -33 mmHg
Changes in mean blood pressure (conscious rats; after 3 hr): -33 mmHg
Changes in mean blood pressure (conscious rats; after 5 hr): -24 mmHg
Changes in mean blood pressure (conscious rats; after 7 hr): -23 mmHg

Structure (SMILES): COC(=O)C1=C(C)NC(C)=C(C(=O)OCC(C)(C)CN(C)Cc2ccccc2)C1c1cccc([N+](=O)[O-])c1 (stereo not drawn) [(302) hydrochloride, 3-(N-Benzyl-N-methylamino)-2,2-dimethylpropyl methyl 2,6-dimethyl-4-(3-nitrophenyl)-1,4-dihydropyridine-3,5-dicarboxylate]
ED20 (anesthetized rats): 0.0091 mg/kg
Duration T1/2 (half-life of hypotensive action) (anesthetized rats): > 30 min

Structure (SMILES): COC(=O)C1=C(C)NC(C)=C(C(=O)OCC(C)(C)CN(C)C)C1c1cccc(Cl)c1F (stereo not drawn) [reference compound]
ED20 (anesthetized rat): 0.0807 mg/kg
Duration T1/2 (anesthetized rat; dose 100): 4.6 min

Structure (SMILES): COC(=O)C1=C(C)NC(C)=C(C(=O)OCC(C)(C)CN(C)C)C1c1cccc([N+](=O)[O-])c1Cl (stereo not drawn) [reference compound]
ED20 (anesthetized rat): 0.288 mg/kg
Duration T1/2 (anesthetized rat; dose 300): 3.5 min
